Test results from PMC7673538 (PLoS Biology, 2020).
Read-outs that look alike come from different tables or passages of the source.

Experiments:
CV-B3 [1] = experiment: microbe, parasite or virus in culture; format: cell-based, coxsackievirus B3; conditions: Enterovirus B
PV-1 = experiment: microbe, parasite or virus in culture; format: cell-based, poliovirus 1; conditions: Enterovirus C
EV-D68 = experiment: microbe, parasite or virus in culture; format: cell-based, enterovirus D68; conditions: Enterovirus D
HRV-A2 = experiment: microbe, parasite or virus in culture; format: cell-based, human rhinovirus; conditions: Human rhinovirus sp., HRVA2, HeLa R19, read-out: EC50 HRV-A2
in vitro [2] = conditions: human
in vitro [3] = conditions: human; remark: listed apart in the source
CV-B3 [4] = experiment: microbe, parasite or virus in culture; format: cell-based, coxsackievirus B3; conditions: Enterovirus B, CVB3, BGM
CV-B3 [5] = experiment: microbe, parasite or virus in culture; format: cell-based, coxsackievirus B3; conditions: for EC50: Enterovirus B
HRV-B14 = experiment: microbe, parasite or virus in culture; format: cell-based, human rhinovirus; conditions: Human rhinovirus sp.
in vitro [6] = conditions: monkey
[7] = system: representative EVs and RVs; format: cell-based
CV-A24 = experiment: microbe, parasite or virus in culture; format: cell-based, coxsackievirus A24; conditions: Enterovirus C
EV-A71 = experiment: microbe, parasite or virus in culture; format: cell-based, enterovirus A71; conditions: Enterovirus A
[8] = CVB3, HAP1, read-out: EC50 Hap1 Average
[9] = CVB3, HAP1, read-out: Exp 1 EC50 Hap1
[10] = CVB3, HAP1, read-out: Exp 2 EC50 Hap1
[11] = EVD68, HeLa R19, read-out: EC50 EV-D68
[12] = EVD68, HeLa R19, read-out: EC50 Exp1
[13] = EVD68, HeLa R19, read-out: EC50 Exp2
[14] = CVB3, HeLa R19, read-out: CV-B3 EC50 Average
[15] = CVB3, HeLa R19, read-out: CV-B3 Exp 1 EC50
[16] = CVB3, HeLa R19, read-out: CV-B3 Exp2 EC50
[17] = CVB3, HeLa R19, read-out: Exp 1 EC50 HelaR19
[18] = CVB3, HeLa R19, read-out: Exp 2 EC50 HelaR19
[19] = HRVB14, HeLa R19, read-out: EC50 HRV-B14
[20] = CVA24, HeLa R19, read-out: EC50 Exp1
[21] = CVA24, HeLa R19, read-out: EC50 Exp2
[22] = EVA71, HeLa R19, read-out: EC50 EV-A71
[23] = EVA71, HeLa R19, read-out: EC50 Exp1
[24] = EVA71, HeLa R19, read-out: EC50 Exp2

Molecule O=C(c1ccco1)N(Cc1ccccc1)c1ccccc1 [Compound 19a, N-Benzyl-N-phenylfuran-2-carboxamide] has an EC50 (CV-B3 [1]; [8]) of 730 nM, an EC50 (CV-B3 [1]; [9]) of 480 nM and an EC50 (CV-B3 [1]; [10]) of 970 nM. For the same molecule, the EC50 (PV-1; HeLa R19, read-out: EC50 Exp1) was 31500 nM, the EC50 (PV-1; HeLa R19, read-out: EC50 Exp2) was 33600 nM and the EC50 (PV-1; HeLa R19, read-out: EC50 PV-1) was 32600 ± 1080 nM. It also gave an EC50 (EV-D68; [11]) of 1340 ± 450 nM, an EC50 (EV-D68; [12]) of 1790 nM and an EC50 (EV-D68; [13]) of 890 nM. It also gave an EC50 (HRV-A2) greater than 30000 nM, a CC50 (in vitro [2]; CC50 Average) greater than 30000 nM and a CC50 (in vitro [2]; CC50 HelaR19 Average) greater than 100000 nM. For the same molecule, the CC50 (in vitro [2]; Exp 1 CC50) was greater than 30000 nM, the CC50 (in vitro [2]; Exp 1 CC50 HelaR19) was greater than 100000 nM and the CC50 (in vitro [2]; Exp2 CC50) was greater than 30000 nM. The CC50 (in vitro [2]; Exp 2 CC50 HelaR19) was greater than 100000 nM, the CC50 (in vitro [3]; CC50) was greater than 100000 nM and the CC50 (in vitro [3]; CC50 Hap1 Average) was greater than 100000 nM. For the same molecule, the CC50 (in vitro [3]; Exp 1 CC50 Hap1) was greater than 100000 nM, the CC50 (in vitro [3]; Exp 2 CC50 Hap1) was greater than 100000 nM and the EC50 (CV-B3 [4]; read-out: EC50 BGM Average) was 1840 nM. For the same molecule, the EC50 (CV-B3 [4]; read-out: Exp 1 EC50 BGM) was 1900 nM, the EC50 (CV-B3 [4]; read-out: Exp 2 EC50 BGM) was 1770 nM and the “increase or decrease of antiviral activity against CV-B3” value (CV-B3 [5]) was “less than 3 fold”. It also gave an EC50 (CV-B3 [5]; [14]) of 910 nM, an EC50 (CV-B3 [5]; [15]) of 880 nM and an EC50 (CV-B3 [5]; [16]) of 940 nM. For the same molecule, the EC50 (CV-B3 [5]; CVB3, HeLa R19, read-out: EC50 HelaR19 Average) was 1620 nM, the EC50 (CV-B3 [5]; [17]) was 1250 nM and the EC50 (CV-B3 [5]; [18]) was 1980 nM. The EC50 (HRV-B14; [19]) was greater than 30000 nM, the CC50 (in vitro [6]; CC50) was greater than 100000 nM and the CC50 (in vitro [6]; CC50 BGM Average) was greater than 100000 nM. For the same molecule, the CC50 (in vitro [6]; Exp 1 CC50 BGM) was greater than 100000 nM, the CC50 (in vitro [6]; Exp 2 CC50 BGM) was greater than 100000 nM and the “cytotoxicity (in words)” value (HeLa R19 cells) was “did not show any cytotoxicity”. The “spectrum of antiviral activity (in words)” value [7] was “anti-EV activity but not anti-RV activity”, the EC50 (CV-A24; CVA24, HeLa R19, read-out: EC50 CV-A24) was 21480 ± 30 nM and the EC50 (CV-A24; [20]) was 21500 nM. For the same molecule, the EC50 (CV-A24; [21]) was 21400 nM, the EC50 (EV-A71; [22]) was 3500 ± 310 nM and the EC50 (EV-A71; [23]) was 3190 nM. For the same molecule, the EC50 (EV-A71; [24]) was 3800 nM.
Work on Cc1ccc(CN(C(=O)c2ccco2)c2ccccc2)cc1 [Compound 19g, N-(4-Methylbenzyl)-N-phenylfuran-2-carboxamide] yielded an EC50 (CV-B3 [1]; [8]) of 2380 nM, an EC50 (CV-B3 [1]; [9]) of 2080 nM and an EC50 (CV-B3 [1]; [10]) of 2680 nM. It also gave an EC50 (PV-1; HeLa R19, read-out: EC50 Exp1) of 16500 nM, an EC50 (PV-1; HeLa R19, read-out: EC50 Exp2) of 18500 nM and an EC50 (PV-1; HeLa R19, read-out: EC50 PV-1) of 17500 ± 1000 nM. The EC50 (EV-D68; EVD68, HeLa R19, read-out: EC50 Average) was 1480 nM, the EC50 (EV-D68; [11]) was 1490 ± 80 nM and the EC50 (EV-D68; [12]) was 1560 nM. For the same molecule, the EC50 (EV-D68; [13]) was 1410 nM, the EC50 (HRV-A2) was greater than 30000 nM and the CC50 (in vitro [2]; CC50 Average) was greater than 30000 nM. For the same molecule, the CC50 (in vitro [2]; CC50 HelaR19 Average) was greater than 100000 nM, the CC50 (in vitro [2]; Exp 1 CC50) was greater than 30000 nM and the CC50 (in vitro [2]; Exp 1 CC50 HelaR19) was greater than 100000 nM. The CC50 (in vitro [2]; Exp2 CC50) was greater than 30000 nM, the CC50 (in vitro [2]; Exp 2 CC50 HelaR19) was greater than 100000 nM and the CC50 (in vitro [3]; CC50) was greater than 100000 nM. For the same molecule, the CC50 (in vitro [3]; CC50 Hap1 Average) was greater than 100000 nM, the CC50 (in vitro [3]; Exp 1 CC50 Hap1) was greater than 100000 nM and the CC50 (in vitro [3]; Exp 2 CC50 Hap1) was greater than 100000 nM. The EC50 (CV-B3 [4]) was 1700 ± 260 nM, the EC50 (CV-B3 [4]; read-out: EC50 BGM Average) was 1690 nM and the EC50 (CV-B3 [4]; read-out: Exp 1 EC50 BGM) was 1950 nM. For the same molecule, the EC50 (CV-B3 [4]; read-out: Exp 2 EC50 BGM) was 1440 nM, the “effect of the substitution on antiviral activity against CV-B3 (in words)” value (CV-B3 [5]) was “only marginally affected antiviral activity” and the EC50 (CV-B3 [5]; [14]) was 880 nM. The EC50 (CV-B3 [5]; [15]) was 860 nM, the EC50 (CV-B3 [5]; [16]) was 890 nM and the EC50 (CV-B3 [5]; [17]) was 1020 nM. It also gave an EC50 (CV-B3 [5]; [18]) of 1690 nM, an EC50 (HRV-B14; HRVB14, HeLa R19, read-out: EC50 Average) of 12600 nM and an EC50 (HRV-B14; HRVB14, HeLa R19, read-out: EC50 Exp1) of 13600 nM. For the same molecule, the EC50 (HRV-B14; HRVB14, HeLa R19, read-out: EC50 Exp2) was 11500 nM, the EC50 (HRV-B14; [19]) was 12500 ± 1050 nM and the CC50 (in vitro [6]; CC50) was greater than 100000 nM. For the same molecule, the CC50 (in vitro [6]; CC50 BGM Average) was greater than 100000 nM, the CC50 (in vitro [6]; Exp 1 CC50 BGM) was greater than 100000 nM and the CC50 (in vitro [6]; Exp 2 CC50 BGM) was greater than 100000 nM. For the same molecule, the “cytotoxicity (in words)” value (HeLa R19 cells) was “did not show any cytotoxicity”, the “spectrum of antiviral activity (in words)” value [7] was “anti-EV activity but not anti-RV activity” and the EC50 (CV-A24; [20]) was 9290 nM. The EC50 (CV-A24; [21]) was 11000 nM, the EC50 (EV-A71; [22]) was 600 ± 140 nM and the EC50 (EV-A71; [23]) was 460 nM. The EC50 (EV-A71; [24]) was 730 nM.
